In ChEMBL document CHEMBL3259797, “Radiosyntheses and in vivo evaluation of carbon-11 PET tracers for PDE10A in the brain of rodent and nonhuman primate” (Bioorg Med Chem, 2014):

What was measured:
Blood [1] = test: Biodistribution in Sprague-Dawley rat blood at 14.8 to 18.5 MBq, iv measured at 5 mins post-injection by gamma counting analysis; format: ADME, organism-based; details: in vivo
Lung [2] = test: Biodistribution in Sprague-Dawley rat lung at 14.8 to 18.5 MBq, iv measured at 5 mins post-injection by gamma counting analysis; format: ADME, organism-based; details: in vivo
Liver [3] = test: Biodistribution in Sprague-Dawley rat liver at 14.8 to 18.5 MBq, iv measured at 5 mins post-injection by gamma counting analysis; format: ADME, organism-based; details: in vivo
Kidney [4] = test: Biodistribution in Sprague-Dawley rat kidney at 14.8 to 18.5 MBq, iv measured at 5 mins post-injection by gamma counting analysis; format: ADME, organism-based; details: in vivo
Muscle tissue [5] = test: Biodistribution in Sprague-Dawley rat muscle at 14.8 to 18.5 MBq, iv measured at 5 mins post-injection by gamma counting analysis; format: ADME, organism-based; details: in vivo
Rattus norvegicus [6] = test: Biodistribution in Sprague-Dawley rat fat at 14.8 to 18.5 MBq, iv measured at 5 mins post-injection by gamma counting analysis; format: ADME, organism-based, Adipose tissue; details: in vivo
Heart [7] = test: Biodistribution in Sprague-Dawley rat heart at 14.8 to 18.5 MBq, iv measured at 5 mins post-injection by gamma counting analysis; format: ADME, organism-based; details: in vivo
Cerebellum [8] = test: Biodistribution in Sprague-Dawley rat cerebellum at 14.8 to 18.5 MBq, iv measured at 5 mins post-injection by gamma counting analysis; format: ADME, organism-based; details: in vivo
Striatum [9] = test: Biodistribution in Sprague-Dawley rat striatum at 14.8 to 18.5 MBq, iv measured at 5 mins post-injection by gamma counting analysis; format: ADME, organism-based; details: in vivo
Brain [10] = test: Biodistribution in Sprague-Dawley rat brain at 14.8 to 18.5 MBq, iv measured at 5 mins post-injection by gamma counting analysis; format: ADME, organism-based; details: in vivo
Blood [11] = test: Biodistribution in Sprague-Dawley rat blood at 14.8 to 18.5 MBq, iv measured at 30 mins post-injection by gamma counting analysis; format: ADME, organism-based; details: in vivo, 0.5 h
Lung [12] = test: Biodistribution in Sprague-Dawley rat lung at 14.8 to 18.5 MBq, iv measured at 30 mins post-injection by gamma counting analysis; format: ADME, organism-based; details: in vivo, 0.5 h
Liver [13] = test: Biodistribution in Sprague-Dawley rat liver at 14.8 to 18.5 MBq, iv measured at 30 mins post-injection by gamma counting analysis; format: ADME, organism-based; details: in vivo, 0.5 h
Kidney [14] = test: Biodistribution in Sprague-Dawley rat kidney at 14.8 to 18.5 MBq, iv measured at 30 mins post-injection by gamma counting analysis; format: ADME, organism-based; details: in vivo, 0.5 h
Muscle tissue [15] = test: Biodistribution in Sprague-Dawley rat muscle at 14.8 to 18.5 MBq, iv measured at 30 mins post-injection by gamma counting analysis; format: ADME, organism-based; details: in vivo, 0.5 h
Rattus norvegicus [16] = test: Biodistribution in Sprague-Dawley rat fat at 14.8 to 18.5 MBq, iv measured at 30 mins post-injection by gamma counting analysis; format: ADME, organism-based, Adipose tissue; details: in vivo, 0.5 h
Heart [17] = test: Biodistribution in Sprague-Dawley rat heart at 14.8 to 18.5 MBq, iv measured at 30 mins post-injection by gamma counting analysis; format: ADME, organism-based; details: in vivo, 0.5 h
Cerebellum [18] = test: Biodistribution in Sprague-Dawley rat cerebellum at 14.8 to 18.5 MBq, iv measured at 30 mins post-injection by gamma counting analysis; format: ADME, organism-based; details: in vivo, 0.5 h
Striatum [19] = test: Biodistribution in Sprague-Dawley rat striatum at 14.8 to 18.5 MBq, iv measured at 30 mins post-injection by gamma counting analysis; format: ADME, organism-based; details: in vivo, 0.5 h
Brain [20] = test: Biodistribution in Sprague-Dawley rat brain at 14.8 to 18.5 MBq, iv measured at 30 mins post-injection by gamma counting analysis; format: ADME, organism-based; details: in vivo, 0.5 h
Blood [21] = test: Biodistribution in Sprague-Dawley rat blood at 14.8 to 18.5 MBq, iv measured at 60 mins post-injection by gamma counting analysis; format: ADME, organism-based; details: in vivo, 1 h
Lung [22] = test: Biodistribution in Sprague-Dawley rat lung at 14.8 to 18.5 MBq, iv measured at 60 mins post-injection by gamma counting analysis; format: ADME, organism-based; details: in vivo, 1 h
Liver [23] = test: Biodistribution in Sprague-Dawley rat liver at 14.8 to 18.5 MBq, iv measured at 60 mins post-injection by gamma counting analysis; format: ADME, organism-based; details: in vivo, 1 h
Kidney [24] = test: Biodistribution in Sprague-Dawley rat kidney at 14.8 to 18.5 MBq, iv measured at 60 mins post-injection by gamma counting analysis; format: ADME, organism-based; details: in vivo, 1 h
Muscle tissue [25] = test: Biodistribution in Sprague-Dawley rat muscle at 14.8 to 18.5 MBq, iv measured at 60 mins post-injection by gamma counting analysis; format: ADME, organism-based; details: in vivo, 1 h
Rattus norvegicus [26] = test: Biodistribution in Sprague-Dawley rat fat at 14.8 to 18.5 MBq, iv measured at 60 mins post-injection by gamma counting analysis; format: ADME, organism-based, Adipose tissue; details: in vivo, 1 h
Heart [27] = test: Biodistribution in Sprague-Dawley rat heart at 14.8 to 18.5 MBq, iv measured at 60 mins post-injection by gamma counting analysis; format: ADME, organism-based; details: in vivo, 1 h
Cerebellum [28] = test: Biodistribution in Sprague-Dawley rat cerebellum at 14.8 to 18.5 MBq, iv measured at 60 mins post-injection by gamma counting analysis; format: ADME, organism-based; details: in vivo, 1 h
Striatum [29] = test: Biodistribution in Sprague-Dawley rat striatum at 14.8 to 18.5 MBq, iv measured at 60 mins post-injection by gamma counting analysis; format: ADME, organism-based; details: in vivo, 1 h
Brain [30] = test: Biodistribution in Sprague-Dawley rat brain at 14.8 to 18.5 MBq, iv measured at 60 mins post-injection by gamma counting analysis; format: ADME, organism-based; details: in vivo, 1 h
Nucleic Acid = test: Ratio of drug level in striatum to cerebellum in Sprague-Dawley rat at 14.8 to 18.5 MBq, iv measured at 30 mins post-injection by gamma counting analysis; format: ADME, organism-based; details: in vivo, 0.5 h

Compound | Drug uptake (Blood [1]) | Drug uptake (Lung [2]) | Drug uptake (Liver [3]) | Drug uptake (Kidney [4]) | Drug uptake (Muscle tissue [5]) | Drug uptake (Rattus norvegicus [6]) | Drug uptake (Heart [7]) | Drug uptake (Cerebellum [8]) | Drug uptake (Striatum [9]) | Drug uptake (Brain [10]) | Drug uptake (Blood [11]) | Drug uptake (Lung [12]) | Drug uptake (Liver [13]) | Drug uptake (Kidney [14]) | Drug uptake (Muscle tissue [15]) | Drug uptake (Rattus norvegicus [16]) | Drug uptake (Heart [17]) | Drug uptake (Cerebellum [18]) | Drug uptake (Striatum [19]) | Drug uptake (Brain [20]) | other results
Cn1cc(-c2ccncc2)c(-c2ccc(OCc3ccc4cc(O[11CH3])ccc4n3)cc2)n1 | 0.282 % ID/g | 0.744 % ID/g | 5.357 % ID/g | 1.333 % ID/g | 0.151 % ID/g | 0.139 % ID/g | 0.416 % ID/g | 0.251 % ID/g | 0.293 % ID/g | 0.249 % ID/g | 0.275 % ID/g | 0.389 % ID/g | 3.172 % ID/g | 0.883 % ID/g | 0.175 % ID/g | 0.221 % ID/g | 0.264 % ID/g | 0.09 % ID/g | 0.16 % ID/g | 0.105 % ID/g | Drug uptake (Blood [21]): 0.21 % ID/g; Drug uptake (Lung [22]): 0.249 % ID/g; Drug uptake (Liver [23]): 1.724 % ID/g; Drug uptake (Kidney [24]): 0.637 % ID/g; Drug uptake (Muscle tissue [25]): 0.129 % ID/g; Drug uptake (Rattus norvegicus [26]): 0.135 % ID/g; Drug uptake (Heart [27]): 0.182 % ID/g; Drug uptake (Cerebellum [28]): 0.066 % ID/g; Drug uptake (Striatum [29]): 0.089 % ID/g; Drug uptake (Brain [30]): 0.074 % ID/g
Cn1ncc(-c2ccncc2)c1-c1ccc(OCc2cc(O[11CH3])c3ccccc3n2)cc1 | 0.099 % ID/g | 0.643 % ID/g | 3.312 % ID/g | 1.744 % ID/g | 0.146 % ID/g | 0.066 % ID/g | 0.335 % ID/g | 0.094 % ID/g | 0.151 % ID/g | 0.091 % ID/g | 0.067 % ID/g | 0.156 % ID/g | 4.43 % ID/g | 0.645 % ID/g | 0.093 % ID/g | 0.139 % ID/g | 0.132 % ID/g | 0.024 % ID/g | 0.083 % ID/g | 0.025 % ID/g | Drug uptake (Blood [21]): 0.067 % ID/g; Drug uptake (Lung [22]): 0.107 % ID/g; Drug uptake (Liver [23]): 4.588 % ID/g; Drug uptake (Kidney [24]): 0.575 % ID/g; Drug uptake (Muscle tissue [25]): 0.052 % ID/g; Drug uptake (Rattus norvegicus [26]): 0.139 % ID/g; Drug uptake (Heart [27]): 0.103 % ID/g; Drug uptake (Cerebellum [28]): 0.015 % ID/g; Drug uptake (Striatum [29]): 0.037 % ID/g; Drug uptake (Brain [30]): 0.015 % ID/g; Ratio (Nucleic Acid): 3.6
